The source of these data is patent US11839623B2, “Antiviral prodrugs and formulations thereof” (BOARD OF REGENTS OF THE UNIVERSITY OF NEBRASKA, priority 2018, dated 2023).

The test system of data set [1] is HIV-1ADA. The data set can be described thus: Antiretroviral efficacy of nanoformulations in MDM challenged with HIV-1ADA (RT activity, p24). The data set is classed as cell-based. Particulars: 100 μM 8 hours, all time points. The protocol: Antiretroviral efficacy of nanoformulations: Antiviral efficacies of ABC and the ProTide nanoformulations in MDM were assessed as described (Singh, et al., Nanomedicine (2016) 11:1913-1927). MDM were treated with 100 μM different nanoformulations for 8 hours. Then nanoformulation-containing medium was replaced with fresh medium after washing MDM with PBS twice. Half media changes were conducted every other day. At predetermined time points, days 1, 5, 10, 15, 20, 25 and 30, MDM were infected with HIV-1ADA for 4 hours at a MOI of 0.1 and cultured with every-other-day half media changes for an additional 10 days. At day 10, supernatant was collected for RT assay and MDM were fixed with paraformaldehyde and immunostained for expression of HIVp24. Untreated, uninfected MDM served as negative controls (control), while MDM exposed to HIV-1ADA but not treated with nanoformulations, served as positive controls (HIV-1). For NM3ABC, a concentration response study was also conducted. MDM were treated with 1, 10, 25, 50 or 100 μM NM3ABC for 8 hours. The treated MDM were then washed twice with PBS. MDM were cultured for an additional 30 days in fresh media with half media changes every other day. At day 30, MDM were challenged with HIV-1ADA at a MOI of 0.1 for 4 hours. Excess virus was washed out with PBS and MDM were cultured for another 10 days. […]

Data set [2] deals with HIV-1ADA. The data set can be described thus: IC50 determination of ABC, MABC, PABC in MDM challenged with HIV-1ADA (RT activity). The data set is classed as cell-based. Particulars: Human immunodeficiency virus 1, 240 h, HIV-1ADA MOI 0.1, RT activity day 10, read-out: IC50 on reverse transcriptase. The protocol:
Antiretroviral activities. Antiretroviral efficacy was determined by measurements of HIV reverse transcriptase (RT) activity. For IC50 determination, MDM were exposed to various concentrations (0.01-1000 nM) of ABC, MABC or PABC for 1 hour followed by challenge with HIV-1ADA at a multiplicity of infection (MOI) of 0.1 infectious particles per cell for 4 hours. Following viral challenge, cells were washed and incubated with the same concentration of drug used before infection for an additional 10 days in culture. Culture fluids were collected on day 10 for the measurement of RT activity. To assess antiretroviral efficacy, MDM were treated with 100 μM ABC, PABC or NPABC as described above for 8 hours. After treatment, cells were washed with PBS and cultured with fresh media, with half-media exchanges every other day. At 0, 4, 12 hours, and 1, 5, 10, 15 or 20 days after treatment, cells were challenged with HIV-1ADA at an MOI of 0.1 infectious particles per cell for 16 hours. After viral infection, the cells were cultured an additional 10 days with half-media exchanges every other day. Culture fluids were collected for measurement of RT activity. Cells were fixed with 4% PFA and expression of HIV-1 p24 antigen was determined by immunocytochemistry.

Data set [3] relates to monocyte-derived macrophages (MDM). The data set can be described thus: Macrophage uptake and retention of ABC, NMABC, NPABC. The data set is classed as cell-based, human. As to conditions: 100 μM, 8 hours loading. The protocol:
Macrophage uptake and retention. Human monocytes were obtained by leukapheresis from HIV-1/2 and hepatitis B seronegative donors, and then purified by counter-current centrifugal elutriation as described (Balkundi, et al., Intl. J. Nanomed. (2011) 6:3393-3404; Nowacek, et al., Nanomed. (2009) 4(8):903-917). Human monocytes were plated in a 12-well plate at a density of 1.0×10^6 cells per well using DMEM supplemented with 10% heat-inactivated pooled human serum, 1% glutamine, 10 μg/mL ciprofloxacin, and 50 μg/mL gentamicin. Cells were maintained at 37° C. in a 5% CO2 incubator. After 7 days of differentiation in the presence of 1000 U/mL recombinant human macrophage colony stimulating factor (MCSF), MDM were treated with 100 μM ABC, nanoformulated myristoylated ABC (NMABC; described in PCT/US15/54826), or NPABC. Uptake of drug was assessed by measurements of intracellular drug concentrations at 1, 2, 4 and 8 hours after treatment. For drug retention studies, cells were treated for 8 hours then washed with PBS and maintained with half-media changes every other day until collection at days 1, 5, 10, 15 and 20. For both studies, adherent MDM were washed with PBS, then scraped into PBS, and counted at indicated time points using an Invitrogen Countess Automated Cell Counter (Carlsbad, Calif.). […] Drug content was determined by UPLC-UV/Vis.

The test system is the same in data set [4]. The data set can be described thus: Intracellular CBV-TP in MDM after 100 μM ABC or ProTide nanoformulations (uptake and retention). The data set is classed as cell-based. As to conditions: human. The protocol: Briefly, MDM were treated with different nanoformulations at a concentration of 100 μM for 1, 2, 4 and 8 hours. At select time points, adherent MDM were collected in 1 mL PBS after washing with 1 mL PBS twice. MDM were pelleted by centrifugation at 3,000 rpm for 8 minutes. The cell pellet was reconstituted in 200 μl methanol and probe sonication (10 seconds) was used to break the cells and extract drugs. After probe sonication, cell debris was pelleted by centrifugation at 14,000 rpm for 10 minutes and 4° C. The supernatant was analyzed for prodrug level using HPLC-UV/Vis. For retention, MDM were treated with 100 μM different nanoformulations for 8 hours. The nanoformulation-containing media were replaced with fresh media after washing MDM with PBS twice. At days 1, 5, 10, 15, 20, 25 and 30, MDM were collected in 1 mL PBS after washing with 1 mL PBS twice. The samples were processed as described above for analysis using HPLC. Intracellular CBV-TP levels were also measured for as an indicator of cell uptake and retention. Briefly, cells were scraped into PBS, pelleted by centrifugation at 3,000 rpm for 8 minutes, and reconstituted in 200 μl 70% methanol. CBV-TP was extracted, and the samples were analyzed by LC-MS/MS as described (Gautam, et al., J. Pharm. Biomed. Anal. (2018) 153:248-259).

By IC50 is commonly meant the concentration that gives 50% inhibition. Take `Nc1nc(NC2CC2)c2ncn([C@H]3C=C[C@@H](CO)C3)c2n1` [ABC, abacavir]: the “protection against viral infection” value in data set [1] is “minimal protection against viral infection”. For the same compound, the IC50 in data set [2] was found to be 131 nM. Besides, in data set [3], the “eliminated from MDM within” value is given as “within a day”. The “decrease of CBV-TP from 4 hours to 8 hours” value in data set [4] worked out at 37%. The “retention of CBV-TP in MDMs, detected/sustained until day” value in data set [4] (30 day) stood at 5 days.
